Measurements published in ChEMBL document CHEMBL5291721, “A preclinical secondary pharmacology resource illuminates target-adverse drug reaction associations of marketed drugs” (Nat Commun, 2023).

How the values were obtained:
[1] = molecular target: T1, Estrogen receptor (Homo sapiens, UniProt P03372); type: functional
T1 sequence (P03372 whole entry): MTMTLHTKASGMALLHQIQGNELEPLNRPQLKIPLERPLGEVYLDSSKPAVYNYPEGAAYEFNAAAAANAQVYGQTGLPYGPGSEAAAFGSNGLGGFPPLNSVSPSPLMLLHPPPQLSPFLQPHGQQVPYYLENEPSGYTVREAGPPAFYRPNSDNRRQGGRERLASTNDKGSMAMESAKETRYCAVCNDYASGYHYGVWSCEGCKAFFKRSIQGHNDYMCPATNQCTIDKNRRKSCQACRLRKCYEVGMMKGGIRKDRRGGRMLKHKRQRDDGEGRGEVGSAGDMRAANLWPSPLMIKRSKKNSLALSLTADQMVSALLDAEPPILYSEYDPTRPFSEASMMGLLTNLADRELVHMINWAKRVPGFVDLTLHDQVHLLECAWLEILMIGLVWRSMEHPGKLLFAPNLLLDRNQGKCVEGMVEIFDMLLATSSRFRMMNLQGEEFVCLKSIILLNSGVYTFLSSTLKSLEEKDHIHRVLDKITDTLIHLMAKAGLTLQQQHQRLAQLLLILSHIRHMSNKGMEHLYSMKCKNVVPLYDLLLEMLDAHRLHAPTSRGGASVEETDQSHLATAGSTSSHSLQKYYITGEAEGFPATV

[2] = molecular target: T1, Estrogen receptor; type: functional; remark: listed apart in the source
[3] = molecular target: T2, Glucocorticoid receptor (Homo sapiens, UniProt P04150); type: functional
T2 sequence (P04150 whole entry): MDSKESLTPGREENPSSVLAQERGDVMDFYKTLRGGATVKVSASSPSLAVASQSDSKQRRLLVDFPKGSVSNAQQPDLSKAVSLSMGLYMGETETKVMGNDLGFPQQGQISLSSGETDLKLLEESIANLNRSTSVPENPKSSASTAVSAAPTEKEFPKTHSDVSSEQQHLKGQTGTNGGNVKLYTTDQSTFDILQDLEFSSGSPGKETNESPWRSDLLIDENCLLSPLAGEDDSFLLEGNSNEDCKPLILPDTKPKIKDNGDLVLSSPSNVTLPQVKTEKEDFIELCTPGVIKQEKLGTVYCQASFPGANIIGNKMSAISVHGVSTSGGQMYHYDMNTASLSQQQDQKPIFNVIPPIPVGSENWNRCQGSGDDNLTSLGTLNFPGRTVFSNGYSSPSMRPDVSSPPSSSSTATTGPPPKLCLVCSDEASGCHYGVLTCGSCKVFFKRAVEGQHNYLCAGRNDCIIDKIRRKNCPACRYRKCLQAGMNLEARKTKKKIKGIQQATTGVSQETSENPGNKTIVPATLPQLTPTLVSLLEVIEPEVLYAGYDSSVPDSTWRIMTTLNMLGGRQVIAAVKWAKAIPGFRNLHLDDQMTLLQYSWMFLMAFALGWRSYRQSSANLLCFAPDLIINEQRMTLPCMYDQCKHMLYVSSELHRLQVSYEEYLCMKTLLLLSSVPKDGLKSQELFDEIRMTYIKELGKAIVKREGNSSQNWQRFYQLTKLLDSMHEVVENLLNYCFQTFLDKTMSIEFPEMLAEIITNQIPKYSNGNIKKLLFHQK

[4] = molecular target: T3, Muscarinic acetylcholine receptor M4 (Homo sapiens, UniProt P08173)
T3 sequence (P08173 whole entry): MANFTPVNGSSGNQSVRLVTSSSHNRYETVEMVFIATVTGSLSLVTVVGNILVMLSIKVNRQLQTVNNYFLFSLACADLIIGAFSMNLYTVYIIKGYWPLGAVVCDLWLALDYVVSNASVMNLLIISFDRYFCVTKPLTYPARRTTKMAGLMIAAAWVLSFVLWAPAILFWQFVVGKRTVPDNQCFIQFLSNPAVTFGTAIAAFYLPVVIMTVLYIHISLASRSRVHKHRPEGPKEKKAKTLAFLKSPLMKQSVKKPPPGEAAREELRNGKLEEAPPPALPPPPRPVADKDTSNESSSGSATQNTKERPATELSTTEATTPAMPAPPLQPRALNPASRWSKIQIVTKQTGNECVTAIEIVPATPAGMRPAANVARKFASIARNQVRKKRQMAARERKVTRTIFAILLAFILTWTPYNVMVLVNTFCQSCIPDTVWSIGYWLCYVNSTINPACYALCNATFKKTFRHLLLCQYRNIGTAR

[5] = molecular target: T4, Peroxisome proliferator-activated receptor alpha (Homo sapiens, UniProt Q07869); type: functional
T4 sequence (Q07869 whole entry): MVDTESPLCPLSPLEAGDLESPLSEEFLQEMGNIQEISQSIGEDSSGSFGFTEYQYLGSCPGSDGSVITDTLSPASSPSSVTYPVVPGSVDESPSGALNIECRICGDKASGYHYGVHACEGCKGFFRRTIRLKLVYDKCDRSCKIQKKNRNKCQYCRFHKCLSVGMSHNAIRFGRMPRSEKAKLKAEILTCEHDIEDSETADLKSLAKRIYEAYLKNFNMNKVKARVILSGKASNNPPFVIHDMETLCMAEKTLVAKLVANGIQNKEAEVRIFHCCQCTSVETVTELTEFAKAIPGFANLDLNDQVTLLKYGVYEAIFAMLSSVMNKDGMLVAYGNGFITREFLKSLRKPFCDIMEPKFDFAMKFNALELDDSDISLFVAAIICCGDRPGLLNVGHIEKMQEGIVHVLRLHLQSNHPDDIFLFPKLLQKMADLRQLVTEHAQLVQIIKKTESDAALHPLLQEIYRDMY

[6] = molecular target: T4, Peroxisome proliferator-activated receptor alpha; type: functional; remark: listed apart in the source
Also: assay procedure not described here.

Q: For `COc1cccc2c1C(=O)c1c(O)c3c(c(O)c1C2=O)C[C@@](O)(C(=O)CO)C[C@@H]3O[C@H]1C[C@H](N)[C@H](O)[C@H](C)O1` [DOXORUBICIN], which AC50 [1] is on record?
A: The AC50 was > 10 µM.

Q: And the AC50 [2]?
A: Its AC50 is > 3 µM.

Q: And the AC50 [3]?
A: The AC50 was > 10 µM.

Q: With `N=C(N)NC(=O)c1nc(Cl)c(N)nc1N` [AMILORIDE] as the compound, how does the AC50 [4] read?
A: The AC50 was > 10 µM.

Q: Which results are given for `CC(C)(Oc1ccc(Cl)cc1)C(=O)OCCOC(=O)c1cccnc1` [ETOFIBRATE]?
A: AC50 [5]: > 30 µM; AC50 [6]: > 30 µM
